The values below come from patent US20240424112A1, “TETRAHYDROISOQUINOLINE COMPOUNDS THAT ARE KEAP1 BINDERS” (C4X Discovery Limited, priority 2021, published 2024).

In one test the target is T1, BRD4 short isoform (Homo sapiens, UniProt O60885).
T1 construct: endogenous in cells; host or cells: MDA-MB-468
Kind of test: BRD4 degradation assay (Western blot, MDA-MB-468 cells), short isoform. The test is classed as cell-based. The settings on record: MDA-MB-468, n = 2. As for the experimental part:
(§1) BRD4 Degradation Assay Protocol Summary
(§2) MDA-MB-468 cells were cultured routinely in DMEM supplemented with 10% heat inactivated FBS and 1% Penicillin-Streptomycin (Thermofisher Scientific) at 37° C. 5% CO2. Cells were seeded in 6-well plates at 4*10^5 cells per well and left to adhere overnight. Example compounds were solubilised in DMSO to make 10 mM stocks followed by serial dilutions in DMSO to 200× final concentration. These were further diluted in culture media to give 20× treatment stocks before addition to cells to a 1× final concentration. Cells were then incubated at 37° C. 5% CO2 for 24 or 48 hours after which cells were lysed in RIPA buffer supplemented with cOmplete Mini Protease Inhibitor Cocktail and PhosSTOP™ (Roche). Lysates were clarified by centrifugation at 13,000 RPM for 10 minutes and the protein concentration of the resulting supernatants determined by BCA assay (ThermoFisher Scientific) as per manufacturer's instructions. Lysates were denatured and reduced in NuPAGE LDS sample buffer and sample reducing agent before 10 μg was loaded onto NuPAGE […] Tris-Acetate Mini Protein Gels (ThermoFisher Scientific). Protein was transferred to nitrocellulose membranes using a Trans-Blot Turbo Transfer System (Bio-Rad) before blocking for 1 hour in Intercept (TBS) Blocking Buffer (Li-Cor). Membranes were then incubated overnight with BRD4 (ab128874; Abcam) and α-tubulin (T6074; Sigma-Aldrich) antibodies diluted 1:2000 and 1:16,000 respectively in Tris-buffered saline 0.05% Tween 20 (TBS-T). The following day, membranes were washed with TBS-T before addition of anti-rabbit IRDye 800 CW and anti-mouse IRDye 680LT secondary antibodies (LiCor) (diluted 1:10,000 in TBS-T) for one hour. Membranes were then washed with TBS-T before imaging using a LICOR Odyssey Infrared Imaging System with Image Studio Ver 5.2 software (LiCor). Densitometry analysis was carried out in the LiCor image studio software where BRD4 signal was normalised to α-tubulin signal. Percentage degradation of BRD4 relative to the DMSO treated negative control was calculated as: =100−(signal of interest/signal of control sample*100). BRD4 degradation by dBET1 was used as positive control for each plate. Data obtained for the percentage degradation of BRD4 upon treatment with the Example compounds 1-6 and Comparative Example compounds 1-3 at 24 hour incubation are shown in Table 2 and with 48 hour incubation are shown in Table 3.

The subject of test [1] is NRF2 mediated gene NAD(P)H:quinone acceptor oxidoreductase 1 (NQO1) mRNA in BEAS-2B cells. Put plainly: Beas2B NQO1 mRNA cell based assay. The settings on record: Homo sapiens, 24 h, vs vehicle (0.1% DMSO), read-out: EC50 (increase in NQO1 mRNA). As for the experimental part: Beas2B NQO1 mRNA Cell Based Assay
The up-regulation of the NRF2 mediated gene NAD(P)H:quinone acceptor oxidoreductase 1 (NQO1) was measured using the following assay method: BEAS-2B cells (ATCC CRL-9609) were plated in 96-well clear plates at 20,000 cells/well in 75 μL of cell culture media and incubated overnight (37° C., 5% CO2). On day 2, 25 μL of compound or controls were added to the cells for 24 h. On day 3, the medium was aspirated from the plate and the Cells-to-CT™ 1-Step TaqMan® Kit (Ambion A25603) was used to perform expression analysis directly from cultured cells without RNA purification according to the manufacturer's instructions.
Briefly, cells were washed with ice cold PBS and 22.5 μL of room-temperature DNase/Lysis solution was added to the cells and incubated at room temperature for 5 minutes. To stop the reaction, 2.25 μL of stop solution was added to the cell lysate. The samples were diluted 1:5 using nuclease free water and 2.5 μL transferred into the PCR plate. Real-time PCR was performed using the C-1000 Thermal Cycler (Bio-Rad) using human beta actin as the internal control. The cDNA was amplified with a specific primer for NQO1 using the 1-step RT-PCR master mix (Ambion Cells-to-CT™ 1-Step TaqMan® Kit A25603). The primers/probes sets that were used for amplification of cDNA were obtained from TaqMan Gene Expression Assays (Applied Biosystems). The comparative CT (ΔΔCT) relative quantification method was used to calculate the relative mRNA level of the target gene NQO1 as described in the Applied Biosystems Chemistry Guide. The data are expressed as an increase in target gene mRNA compared to vehicle (0.1% DMSO) control and the EC50 values were determined by fitting the data to a four parameter logistic fit using XLfit or XE Runner within ActivityBase.

A further test addresses T2, BRD4 long isoform (Homo sapiens, UniProt O60885).
T2 construct: endogenous in cells; host or cells: MDA-MB-468
Put plainly: BRD4 degradation assay (Western blot, MDA-MB-468 cells), long isoform. The test is classed as cell-based. The following applies: MDA-MB-468, n = 2. As for the experimental part: as §1, §2
(In general: Immunoblotting shows a protein as a band on a membrane.)

For `Cc1sc2c(c1C)C(c1ccc(Cl)cc1)=N[C@@H](CC(=O)NCC(=O)NCCNC(=O)[C@@]1(C)CCCC[C@H]1C(=O)N1CCc3c(Cl)ccc(OCc4nnn(C)c4C)c3[C@H]1CN1CC3(CC3)CC1=O)c1nnc(C)n1-2` [Comparative Example 1, (1S,2R)-2-((S)-5-Chloro-8-((1,5-dimethyl-1H-1,2,3-triazol-4-yl)methoxy)-1-((6-oxo-5-azaspiro[2.4]heptan-5-yl)methyl)-1,2,3,4-tetrahydroisoquinoline-2-carbonyl)-N-(2-(2-(2-((S)-4-(4-chlorophenyl)-2,3,9-trimethyl-6H-thieno[3,2-f][1,2,4]triazolo[4,3-a][1,4]diazepin-6-yl)acetamido)acetamido)ethyl)-1-methylcyclohexane-1-carboxamide, reference compound], the “% Mean Degradation of BRD4” value on BRD4 short isoform (24 h, 0.1 μM) is reported as 18%; on BRD4 short isoform (24 h, 1 μM), 42%; at BRD4 short isoform (24 h, 5 μM) it was 43%; at BRD4 short isoform (48 h, 0.1 μM) it was −11%; on BRD4 short isoform (48 h, 1 μM), 24%; at BRD4 short isoform (48 h, 5 μM), 28%. In addition, the “% Mean Degradation of BRD4” value was 11% at BRD4 long isoform (24 h, 0.1 μM); 18% on BRD4 long isoform (24 h, 1 μM); 5% at BRD4 long isoform (24 h, 5 μM); −39% on BRD4 long isoform (48 h, 0.1 μM); −27% on BRD4 long isoform (48 h, 1 μM); −47% on BRD4 long isoform (48 h, 5 μM). In test [1], the EC50 (in general, the concentration at which the effect is half-maximal) was 212 nM.
`Cc1sc2c(c1C)C(c1ccc(Cl)cc1)=N[C@@H](CC(=O)NCCOCCNC(=O)[C@@]1(C)CCCC[C@H]1C(=O)N1CCc3c(Cl)ccc(OCc4nnn(C)c4C)c3[C@H]1CN1CC3(CC3)CC1=O)c1nnc(C)n1-2` [Comparative Example 2, (1S,2R)-2-((S)-5-chloro-8-((1,5-dimethyl-1H-1,2,3-triazol-4-yl)methoxy)-1-((6-oxo-5-azaspiro[2.4]heptan-5-yl)methyl)-1,2,3,4-tetrahydroisoquinoline-2-carbonyl)-N-(2-(2-(2-((S)-4-(4-chlorophenyl)-2,3,9-trimethyl-6H-thieno[3,2-f][1,2,4]triazolo[4,3-a][1,4]diazepin-6-yl)acetamido)ethoxy)ethyl)-1-methylcyclohexane-1-carboxamide, reference compound]: the “% Mean Degradation of BRD4” value is on record as −6% at BRD4 short isoform (24 h, 0.1 μM); 9% on BRD4 short isoform (24 h, 1 μM); 26% at BRD4 short isoform (24 h, 5 μM); −15% on BRD4 short isoform (48 h, 0.1 μM); 13% at BRD4 short isoform (48 h, 1 μM); 20% on BRD4 short isoform (48 h, 5 μM). The “% Mean Degradation of BRD4” value is −33% on BRD4 long isoform (24 h, 0.1 μM); 3% at BRD4 long isoform (24 h, 1 μM); 14% on BRD4 long isoform (24 h, 5 μM); −26% on BRD4 long isoform (48 h, 0.1 μM); −61% on BRD4 long isoform (48 h, 1 μM); −124% at BRD4 long isoform (48 h, 5 μM). For the same molecule, the EC50 in test [1] was 75 nM.
Turning to `Cc1sc2c(c1C)C(c1ccc(Cl)cc1)=N[C@@H](CC(=O)NCCOCCOCCNC(=O)[C@@]1(C)CCCC[C@H]1C(=O)N1CCc3c(Cl)ccc(OCc4nnn(C)c4C)c3[C@H]1CN1CC3(CC3)CC1=O)c1nnc(C)n1-2` [Comparative Example 3, (1S,2R)-2-((S)-5-Chloro-8-((1,5-dimethyl-1H-1,2,3-triazol-4-yl)methoxy)-1-((6-oxo-5-azaspiro[2.4]heptan-5-yl)methyl)-1,2,3,4-tetrahydroisoguinoline-2-carbonyl)-N-(2-(2-(2-(2-((S)-4-(4-chlorophenyl)-2,3,9-trimethyl-6H-thieno[3,2-f][1,2,4]triazolo[4,3-a][1,4]diazepin-6-yl)acetamido)ethoxy)ethoxy)ethyl)-1-methylcyclohexane-1-carboxamide, reference compound], the “% Mean Degradation of BRD4” value at BRD4 short isoform (24 h, 0.1 μM) was 5%; at BRD4 short isoform (24 h, 1 μM), 31%; on BRD4 short isoform (24 h, 5 μM), 18%; at BRD4 short isoform (48 h, 0.1 μM), 23%; on BRD4 short isoform (48 h, 1 μM), 32%; at BRD4 short isoform (48 h, 5 μM) it was −4%. The “% Mean Degradation of BRD4” value is listed as 34% on BRD4 long isoform (24 h, 0.1 μM); 45% at BRD4 long isoform (24 h, 1 μM); 49% at BRD4 long isoform (24 h, 5 μM); 13% on BRD4 long isoform (48 h, 0.1 μM); 30% at BRD4 long isoform (48 h, 1 μM); 20% on BRD4 long isoform (48 h, 5 μM). Moreover, the concentration giving a half-maximal response (EC50) in test [1] came out at 68 nM.
For the molecule `CNC(=O)[C@@]1(C)CCCC[C@H]1C(=O)N1CCc2c(Cl)ccc(OCc3nnn(CCNC(=O)CNC(=O)C[C@@H]4N=C(c5ccc(Cl)cc5)c5c(sc(C)c5C)-n5c(C)nnc54)c3C)c2[C@H]1CN1CC2(CC2)CC1=O` [Example 2], the “% Mean Degradation of BRD4” value on BRD4 short isoform (24 h, 0.1 μM) worked out at 84%; at BRD4 short isoform (24 h, 1 μM) it was 95%; on BRD4 short isoform (24 h, 5 μM) it was 97%; on BRD4 short isoform (48 h, 0.1 μM), 71%; at BRD4 short isoform (48 h, 1 μM), 92%; at BRD4 short isoform (48 h, 5 μM), 93%. Moreover, the “% Mean Degradation of BRD4” value came out at 77% on BRD4 long isoform (24 h, 0.1 μM); 93% at BRD4 long isoform (24 h, 1 μM); 91% at BRD4 long isoform (24 h, 5 μM); 78% at BRD4 long isoform (48 h, 0.1 μM); 93% on BRD4 long isoform (48 h, 1 μM); 94% at BRD4 long isoform (48 h, 5 μM). Further, the EC50 in test [1] is 458 nM.
As to `Cc1sc2c(c1C)C(c1ccc(Cl)cc1)=N[C@@H](CC(=O)NCC(=O)NCCOCc1c(COc3ccc(Cl)c4c3[C@@H](CN3CC5(CC5)CC3=O)N(C(=O)[C@@H]3CCCC[C@]3(C)C(=O)O)CC4)nnn1C)c1nnc(C)n1-2` [Example 3, (1S,2R)-2-((S)-5-Chloro-8-((5-((2-(2-(2-((S)-4-(4-chlorophenyl)-2,3,9-trimethyl-6H-thieno[3,2-f][1,2,4]triazolo[4,3-a][1,4]diazepin-6-yl)acetamido)acetamido)ethoxy)methyl)-1-methyl-1H-1,2,3-triazol-4-yl)methoxy)-1-((6-oxo-5-azaspiro[2.4]heptan-5-yl)methyl)-1,2,3,4-tetrahydroisoquinoline-2-carbonyl)-1-methylcyclohexane-1-carboxylic acid], the “% Mean Degradation of BRD4” value on BRD4 short isoform (24 h, 0.1 μM) came to 31%; on BRD4 short isoform (24 h, 1 μM), 87%; at BRD4 short isoform (24 h, 5 μM), 87%; on BRD4 short isoform (48 h, 0.1 μM) it was 25%; on BRD4 short isoform (48 h, 1 μM), 77%; at BRD4 short isoform (48 h, 5 μM), 79%. The “% Mean Degradation of BRD4” value was 23% at BRD4 long isoform (24 h, 0.1 μM); 80% on BRD4 long isoform (24 h, 1 μM); 75% on BRD4 long isoform (24 h, 5 μM); 14% at BRD4 long isoform (48 h, 0.1 μM); 67% at BRD4 long isoform (48 h, 1 μM); 60% at BRD4 long isoform (48 h, 5 μM). Moreover, in test [1], the EC50 is 280 nM.
